Data: BindingDB's records for patent US12378224 (Dong-A Socio Holdings Co., 2025)
pIC50: −log10 of the molar value.

molecular target: T1, Tyrosine-protein kinase Mer/Tyrosine-protein kinase UFO (Human, UniProt P30530+Q12866); experiment: TR-FRET Kinase Activity Biochemical Assay
T1 sequence (P30530 whole entry): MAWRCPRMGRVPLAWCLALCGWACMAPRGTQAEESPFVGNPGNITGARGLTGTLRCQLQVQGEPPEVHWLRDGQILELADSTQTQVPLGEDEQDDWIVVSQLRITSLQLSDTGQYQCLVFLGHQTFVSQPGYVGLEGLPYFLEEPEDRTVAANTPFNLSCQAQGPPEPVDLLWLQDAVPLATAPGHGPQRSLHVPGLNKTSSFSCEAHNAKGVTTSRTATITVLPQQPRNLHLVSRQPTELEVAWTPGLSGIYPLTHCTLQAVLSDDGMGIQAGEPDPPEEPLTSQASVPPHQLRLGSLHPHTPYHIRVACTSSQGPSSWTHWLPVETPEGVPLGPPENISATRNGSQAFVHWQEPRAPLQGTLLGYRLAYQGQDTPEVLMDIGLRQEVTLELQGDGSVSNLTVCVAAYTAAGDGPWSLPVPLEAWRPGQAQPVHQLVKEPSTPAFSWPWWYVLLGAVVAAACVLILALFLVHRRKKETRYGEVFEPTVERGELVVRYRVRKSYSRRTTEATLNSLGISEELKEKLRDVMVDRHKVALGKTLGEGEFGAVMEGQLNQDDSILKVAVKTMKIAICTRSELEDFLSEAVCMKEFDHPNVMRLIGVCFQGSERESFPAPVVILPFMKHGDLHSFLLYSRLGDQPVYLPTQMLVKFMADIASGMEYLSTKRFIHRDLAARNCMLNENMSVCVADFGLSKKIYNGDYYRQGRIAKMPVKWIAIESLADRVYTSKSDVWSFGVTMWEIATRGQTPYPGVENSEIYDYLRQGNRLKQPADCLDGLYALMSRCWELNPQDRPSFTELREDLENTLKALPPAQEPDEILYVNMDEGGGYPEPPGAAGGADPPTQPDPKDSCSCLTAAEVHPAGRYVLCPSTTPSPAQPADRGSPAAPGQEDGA
T1 sequence (Q12866 whole entry): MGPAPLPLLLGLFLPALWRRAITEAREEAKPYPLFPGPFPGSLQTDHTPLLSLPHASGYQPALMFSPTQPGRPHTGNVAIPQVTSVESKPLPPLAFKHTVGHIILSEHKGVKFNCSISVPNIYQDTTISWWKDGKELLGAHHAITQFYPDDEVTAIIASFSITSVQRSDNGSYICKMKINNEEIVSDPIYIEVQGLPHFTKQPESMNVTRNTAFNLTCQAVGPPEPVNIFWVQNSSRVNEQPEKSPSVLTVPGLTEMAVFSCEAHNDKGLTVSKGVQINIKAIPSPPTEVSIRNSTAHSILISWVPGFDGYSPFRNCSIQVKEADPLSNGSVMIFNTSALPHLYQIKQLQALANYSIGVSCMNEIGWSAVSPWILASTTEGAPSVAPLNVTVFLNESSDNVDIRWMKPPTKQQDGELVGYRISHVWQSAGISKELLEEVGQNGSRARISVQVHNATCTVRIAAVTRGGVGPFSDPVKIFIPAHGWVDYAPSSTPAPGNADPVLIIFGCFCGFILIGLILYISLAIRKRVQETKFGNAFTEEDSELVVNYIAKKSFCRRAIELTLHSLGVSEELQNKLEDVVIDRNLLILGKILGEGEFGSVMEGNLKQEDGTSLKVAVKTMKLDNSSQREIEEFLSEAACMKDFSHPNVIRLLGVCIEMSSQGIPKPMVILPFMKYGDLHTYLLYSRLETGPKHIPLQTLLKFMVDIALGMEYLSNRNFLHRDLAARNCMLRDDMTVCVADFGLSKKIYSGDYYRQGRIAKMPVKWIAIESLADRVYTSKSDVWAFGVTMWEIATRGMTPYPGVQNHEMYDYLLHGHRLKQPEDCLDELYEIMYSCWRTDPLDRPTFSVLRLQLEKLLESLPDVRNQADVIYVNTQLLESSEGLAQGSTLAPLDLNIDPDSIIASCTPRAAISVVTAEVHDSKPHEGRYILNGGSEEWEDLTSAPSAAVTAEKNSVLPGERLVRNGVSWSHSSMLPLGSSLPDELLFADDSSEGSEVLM
Source text: Table 2: For the SAR (structure-activity relationship) and compound screening, LanthaScreen™ TR-FRET (Time-Resolved fluorescence energy transfer) assay was employed using the phospho-tyrosine specific Terbium (Tb)-labelded antibody with a fluorescein labeled poly-GT (glutamate-tyrosine) as a substrate. Upon excitation at 340 nm by UV, the energy from Tb donor of the antibody is transferred to the fluorescein of the phosphorylated poly GT substrate, and fluorescein emits light at 520 nm. The ratio between the intensity of primary emission at 495 nm and that of secondary emission at 520 nm was used to quantify the level of kinase activity. The recombinant proteins of human c-MER and AXL catalytic domains, Fluorescein-labeled poly-GT substrate, Tb-labeled anti-phosphorylated tyrosine antibodies, the kinase assay buffer, and 0.5M EDTA solution were purchased (Life technologies, USA). The TR-FRET assays were carried out in the white low volume 384-well plate (Corning, USA). […] 10 mM EDTA was added to terminate the enzyme reaction, and the level of phosphorylation of poly-GT substrate was determined following 30 min incubation with 2 nM Tb-labeled antibody. The fluorescence intensity was measured with Envision™ plate reader (PerkinElmer, USA).

SMILES	pIC50
Cn1cc(-c2cnc(N)c(C(=O)N[C@@H]3CCN(C(=O)c4ccc(-c5cccc(Cl)c5Cl)cc4)C3)c2)cn1 [US12378224, Example 369]	> 8.00
CN1CCN(Cc2ccc(-c3cnc(N)c(C(=O)N[C@@H]4CCN(C(=O)c5ccc(-c6ccccc6Cl)cc5)C4)c3)cc2)CC1 [US12378224, Example 572]	> 8.00
CN1CCC(CNC(=O)c2ccc(-c3cnc(N)c(C(=O)N[C@@H]4CCN(C(=O)c5ccc(-c6ccccc6Cl)cc5)C4)c3)cc2)C1 (some centres undefined) [US12378224, Example 594]	> 8.00

molecular target: T2, Tyrosine-protein kinase Mer/Tyrosine-protein kinase receptor UFO/Tyrosine-protein kinase receptor TYRO3 (Human, UniProt P30530+Q06418+Q12866); experiment: HTRF Kinase Activity Biochemical Assay
T2 sequence (Q06418 whole entry): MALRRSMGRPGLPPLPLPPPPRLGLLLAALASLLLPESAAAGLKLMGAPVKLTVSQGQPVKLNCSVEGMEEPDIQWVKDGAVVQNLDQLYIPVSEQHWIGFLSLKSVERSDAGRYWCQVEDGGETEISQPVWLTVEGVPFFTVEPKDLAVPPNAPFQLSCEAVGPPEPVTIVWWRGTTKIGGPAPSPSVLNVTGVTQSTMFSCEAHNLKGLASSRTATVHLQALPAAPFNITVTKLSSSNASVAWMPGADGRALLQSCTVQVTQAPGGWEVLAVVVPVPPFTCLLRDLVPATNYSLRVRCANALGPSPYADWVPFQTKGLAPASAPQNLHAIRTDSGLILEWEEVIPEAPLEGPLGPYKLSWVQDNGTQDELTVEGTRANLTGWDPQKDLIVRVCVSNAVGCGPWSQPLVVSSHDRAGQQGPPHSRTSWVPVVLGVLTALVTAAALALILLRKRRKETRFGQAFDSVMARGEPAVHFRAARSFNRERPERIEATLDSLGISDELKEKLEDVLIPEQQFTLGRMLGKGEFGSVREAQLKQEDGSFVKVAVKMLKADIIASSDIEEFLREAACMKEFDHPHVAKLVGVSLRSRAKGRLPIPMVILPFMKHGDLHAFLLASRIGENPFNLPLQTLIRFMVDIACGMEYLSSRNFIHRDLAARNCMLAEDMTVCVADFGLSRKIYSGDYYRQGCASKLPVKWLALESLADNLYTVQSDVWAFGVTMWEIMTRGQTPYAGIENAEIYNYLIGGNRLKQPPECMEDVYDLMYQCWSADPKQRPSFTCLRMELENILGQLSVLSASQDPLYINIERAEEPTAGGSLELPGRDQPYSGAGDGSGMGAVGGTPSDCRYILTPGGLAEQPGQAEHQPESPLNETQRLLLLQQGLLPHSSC
T2 sequence (P30530 whole entry): T1 sequence (P30530 whole entry)
T2 sequence (Q12866 whole entry): T1 sequence (Q12866 whole entry)
Protocol: Table 3: For the SAR (structure-activity relationship) and compound screening, HTRF (Homogeneous Time Resolved Fluorescence) kinase activity assay was employed for all MER, AXL and TYRO3 kinases using Cisbio HTRF KinEASE™-TK kit (Cisbio, USA). The kit includes biotin-labeled TK substrate, streptavidin-XL665, Eu3+-cryptate-labeled TK antibody and HTRF Detection buffer. There are two main steps in the kinase assay: kinase reaction and detection of phosphorylated substrate. The reaction was carried out in white low volume 384-well plate (Corning, USA) with 25 nL compound in dimethyl sulfoxide in each well. […] Then the reaction was stopped after 1 hour incubation at room temperature by adding 5 uL of HTRF Detection buffer which also contains 0.375 nM Eu3+-cryptate-labeled TK antibody and 0.062 uM streptavidin-XL665(SA-XL665) to allow for detection of the phosphorylated peptide product. After 1 h incubation at room temperature, the fluorescence intensity was measured with Envision™ plate reader (PerkinElmer, USA). Upon excitation at 340 nm by UV, the energy from Eu3+ donor of the antibody is transferred to the FRET acceptor XL665, and […] emits light at 665 nm. The level of kinase activity was quantified by the HTRF ratio that calculated from the intensity of emission at 665 nm and emission at 620 nm (fluorescence intensity @ 665 nm/fluorescence intensity @ 620 nm×10,000). The recombinant protein of human MER (528-end) was purchased from Carnabio, Japan. The recombinant human AXL (473-end) and TYRO3 (455-end) were purchased from SignalChem, Canada.

SMILES	pIC50
Cn1cc(-c2cnc(N)c(C(=O)N[C@@H]3CCN(C(=O)Nc4ccc(C#N)cc4)C3)c2)cn1 [US12378224, Example 7]	< 6.00
Nc1ncc(-c2ccc(S(=O)(=O)N3CCC3)cc2)cc1C(=O)N[C@@H]1CCN(C(=O)c2ccc(-c3ccccc3Cl)cc2)C1 [US12378224, Example 574]	< 6.00
Nc1ncc(-c2ccnc(N3CCNCC3)c2)cc1C(=O)N[C@@H]1CCN(C(=O)c2ccc(-c3ccc(F)cc3Cl)cc2)C1 [US12378224, Example 581]	> 8.00
CN1CCN(c2ccc(-c3cnc(N)c(C(=O)N[C@@H]4CCN(C(=O)c5ccc(-c6ccc(F)cc6Cl)cc5)C4)c3)cc2)CC1 [US12378224, Example 585]	> 8.00
CN1CCC(NC(=O)c2ccc(-c3cnc(N)c(C(=O)N[C@@H]4CCN(C(=O)c5ccc(-c6ccccc6Cl)cc5)C4)c3)cc2)CC1 [US12378224, Example 591]	> 8.00
CC1CCC(NC(=O)c2ccc(-c3cnc(N)c(C(=O)N[C@@H]4CCN(C(=O)c5ccc(-c6ccccc6Cl)cc5)C4)c3)cc2)CC1 (some centres undefined) [US12378224, Example 592]	< 6.00
